Experimental data published in patent publication US6541672B1, “Derivatives of benzilidine cyclohexanone, benzilidine cyclopentanone, and benzilidine acetone and their synthesis” (Faculty of Pharmacy, The University of Gadjah Mada, priority 1997, dated 2003).

Assays:
S. pheumoniae = assay: Anti bacterial and antifungal activity test; type: cell-based, S. pneumoniae; conditions: in DMSO, 37° C. 24 hours
Protocol: (§1) ANTI BATERIAL AND ANTIFUNGAL ACTIVITY TEST
(§2) Sterile medium of Bacto Muller Hinton was melted at 45-50° C. and poured (25 ml) into a sterile Petric dish (100 mm in diameter), and was left at room temperature for 1 hour. The sterility was checked by overnight incubation (37° C.). The media was immediately used. The microorganism used was gram positive and gram negative. The drug solutions of 0.1, 0.2 and 0.4% in DMSO were used. Incubation was performed at 37° C. for 24 hours.

C. albicans = assay: Anti bacterial and antifungal activity test; type: cell-based; conditions: in DMSO, 37° C. 24 hours
Protocol: as §1, §2

B. subtilis = assay: Anti bacterial and antifungal activity test; type: cell-based; conditions: in DMSO, 37° C. 24 hours
Protocol: as §1, §2

S. Aureus = assay: Anti bacterial and antifungal activity test; type: cell-based; conditions: in DMSO, 37° C. 24 hours
Protocol: as §1, §2

[1] = test system: lipid peroxidation (microsome); assay: Anti oxidation test (Haenen and Bast, 1983), lipid peroxidation; type: biochemical; conditions: malondialdehyde (TBA), microsome 2 mg protein/ml, 37° C., absorbance 535 nm
Protocol: ANTI OXIDATION […], 1983) Anti oxidative activity (lipid peroxidation) was determined by measuring the reactive form of thiobarbituric acid, i.e. malondialdehyde. The synthetic compound with final concentration of 0.5; 1.0; 2.0; 4.0 microM was put into glass tubes. […] The mixture was pre-incubated at 37° C. for 5 minutes. Lipid peroxidation was initiated with the addition of ferro sulphate (0.5 ml, 10 microN) and incubated at 37° C. for 5 minutes, the reaction was stopped by addition of aliquot (0.3 ml) to the mixture of TCA, TBA, and BHT (2 ml) in cold. After heating (80° C.) for 15 minutes and centrifugation (15 minutes), absorbance was read at 535 nm.

carragenin rat paw edema = assay: Anti inflammatory activity test (Winter, 1962), carragenin rat paw edema; type: in vivo, Wistar rats; conditions: peroral in CMC 1%, inhibition of rat paw edema volume, doses 10-80 mg/kg bw
Source text: ANTI INFLAMMATORY ACTIVITY TEST (WINTER, 1962)
Carragenin was used as an inflammatory agent. The volum inhibition of rat paw edema following peroral administration of various doses of the sysnthetic compounds in 1% CMC in comparison to that of control was used to determine the activity of the compounds. In order to evaluate the anti-inflammatory of each compound. Wistar rats (body weight ranging from 200-250 g) were used and divided randomly into 5 groups: one group served as or control and 4 groups were treatment groups. The control group received the vehicle CMC; (Carboxy Methyl Cellulose […]), while the treatment groups received the synthetic compound per orally in CMC 1%. Doses of 10, 20, 40 and 80 mg/kg bw were given to the animals. Where one hour later the animals received a subplantar injection of 0.05 ml of carragenin suspension in saline solution (NaCi 0.9%)- The volumes of rat paw edema were measured immediately and every half an hour following the subplantar injection for 5 hours.

SMILES | Minimum Inhibition Concentration (S. pheumoniae) | Minimum Inhibition Concentration (C. albicans) | Minimum Inhibition Concentration (B. subtilis) | Minimum Inhibition Concentration (S. Aureus) | IC50 [1] | ED 50 (carragenin rat paw edema)
O=C(C=Cc1cc(Cl)c(O)c(Cl)c1)C=Cc1cc(Cl)c(O)c(Cl)c1 [GVT-6, 1,5-bis (4-hydroxy-3,5-dichlorophenyl)-1,4-pentadiene-3-one] | 0.05% | 0.25% | 0.30% | 0.25% |  | 
CCc1cc(C=C2CCCC(=Cc3cc(CC)c(O)c(CC)c3)C2=O)cc(CC)c1O [HGV-2] |  |  |  |  | 1970 nM | 20 mg/kg.bb
COc1cc(/C=C2/CCC/C(=C/c3cc(OC)c(O)c(OC)c3)C2=O)cc(OC)c1O [HGV-5] |  |  |  |  | 1700 nM | 222 mg/kg.bb
O=C1C(=Cc2cc(Cl)c(O)c(Cl)c2)CCCC1=Cc1cc(Cl)c(O)c(Cl)c1 [HGV-6] | 0.05% | 0.25% | 0.25% | 0.35% |  | 25 mg/kg.bb
Cc1cc(/C=C2\CC/C(=C\c3cc(C)c(O)c(C)c3)C2=O)cc(C)c1O [PGV-1] |  |  |  |  | 2200 nM | 86 mg/kg.bb
CCc1cc(/C=C2\CC/C(=C\c3cc(CC)c(O)c(CC)c3)C2=O)cc(CC)c1O [PGV-2] |  |  |  |  | 2210 nM | 80 mg/kg.bb
COc1cc(/C=C2/CC/C(=C/c3cc(OC)c(O)c(OC)c3)C2=O)cc(OC)c1O [PGV-5] |  |  |  |  | 990 nM | 48 mg/kg.bb
O=C1C(=Cc2cc(Cl)c(O)c(Cl)c2)CCC1=Cc1cc(Cl)c(O)c(Cl)c1 [PGV-6] | 0.10% | 0.25% | 0.20% | 0.25% | 14900 nM | 20 mg/kg.bb
